These results are taken from patent US11466013B2 (Betta Pharmaceuticals Co., LTD, priority 2018, dated 2022).

Broadly, the IC50 is the concentration that gives 50% inhibition. Low readings indicate higher potency, high ones lower potency.

Where only a bound is given, the exact number is not on record here.

For one test, the system named is COLO205 cells. As to the kind of experiment: Cell proliferation assay (COLO205), Cell-titer Glo. It is filed as cell-based. The procedure:
COLO205 cells were spread into a 96-well plate at 135 μL/well at 2000 cells. After incubating overnight, compound solutions of gradient concentration was prepared, and added 15 μL of DMSO solution of the test compound of each concentration to the cells of each well. The final concentration of the compound was 30000, 10000, 3333.3, 1111.1, 370.4, 123.5, 41.2, 13.7, 4.6, 0 nM (the final concentration of DMSO was 0.5%). 5% CO2 was incubated for 120 h at 37° C. 50 μL of Cell-titer Glo working solution was added to each well, shaked and mixed, and incubated at room temperature for 10 minutes. The multi-functional microplate reader read the luminescence value, and converted the luminescence value reading into inhibition percentage. Inhibition percentage=(maximum value−reading)/(maximum value−minimum value)*100.
The “maximum value” was the DMSO control, the “minimum value” indicates the cell-free control group.
Graphpad Prism software was used to perform curve fitting and obtain IC50 value.

The target of a further test is ERK1 (Homo sapiens, UniProt P27361). The test is described as follows: Kinase assay (Caliper, FAM-labeled peptide), ERK1. The format is biochemical. Summed up:
(§1)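 Kinase preincubated 10 min at room temperature with serially diluted compound before FAM-labeled peptide plus ATP added; reaction run at 28 °C, then stopped. Substrate conversion read by Caliper mobility shift, normalized to DMSO and low controls, curve-fitted for IC50.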

For another test, the target named is ERK2 (Homo sapiens, UniProt P28482). The test is described as follows: Kinase assay (Caliper, FAM-labeled peptide), ERK2. It is filed as biochemical. Summed up: as §1
Chain of ERK2 (P28482 whole entry): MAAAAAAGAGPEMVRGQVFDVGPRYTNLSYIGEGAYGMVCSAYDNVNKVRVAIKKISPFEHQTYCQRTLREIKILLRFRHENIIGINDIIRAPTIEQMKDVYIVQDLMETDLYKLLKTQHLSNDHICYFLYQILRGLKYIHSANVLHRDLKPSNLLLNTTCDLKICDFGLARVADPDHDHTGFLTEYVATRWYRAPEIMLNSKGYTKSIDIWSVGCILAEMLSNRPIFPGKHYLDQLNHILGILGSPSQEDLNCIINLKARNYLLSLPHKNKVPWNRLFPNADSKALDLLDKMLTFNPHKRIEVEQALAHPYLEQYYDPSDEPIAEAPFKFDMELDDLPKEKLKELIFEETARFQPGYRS
Setting [1] is: Homo sapiens, COLO 205, 120 h incubation.

Chain of ERK1 (P27361 whole entry): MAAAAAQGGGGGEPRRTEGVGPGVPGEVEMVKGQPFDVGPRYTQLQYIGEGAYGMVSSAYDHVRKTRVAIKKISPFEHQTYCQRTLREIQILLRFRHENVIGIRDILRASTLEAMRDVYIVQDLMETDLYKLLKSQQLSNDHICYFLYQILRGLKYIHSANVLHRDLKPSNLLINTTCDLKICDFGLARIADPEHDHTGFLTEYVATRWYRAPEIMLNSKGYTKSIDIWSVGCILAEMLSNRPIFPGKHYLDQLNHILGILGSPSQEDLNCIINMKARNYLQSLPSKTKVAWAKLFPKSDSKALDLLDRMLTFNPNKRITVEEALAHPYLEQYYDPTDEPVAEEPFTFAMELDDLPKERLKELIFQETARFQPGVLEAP

In the test on COLO205 cells (setting [1]), `Cc1cnc(Nc2ccnn2C)nc1-c1cc2n(c1)CCN(Cc1cccc(F)c1)C2=O` [Example D5, 2-(3-fluorobenzyl)-7-(5-methyl-2-((1-methyl-1h-pyrazole-5-yl)amino)pyrimidin-4-yl)-3,4-dihydropyrrolo[1,2-a] pyrazine-1(2H)-one, reference compound] displayed a concentration for half-maximal inhibition (IC50) of 0.0937 µM.
In the case of `CC(C)Nc1cc(-c2cc3n(c2)CC(CO)CN(Cc2cccc(Cl)c2)C3=O)c(Cl)cn1` (stereo not drawn) [Example D7, 8-(5-chloro-2-(isopropylamino)pyridin-4-yl)-2-(3-chlorophenylmethyl)-4-(hydroxymethyl)-2,3,4,5-tetrahydro-1h-pyrrolo [1,2-a][1,4]diazepine-1-one, reference compound], the figures for the IC50 with COLO205 cells (setting [1]), at ERK1 and on ERK2 were > 10 µM, > 300 nM and > 300 nM, respectively.
Take `COC[C@H]1Cn2cc(-c3cc(Nc4cc(C)nn4C)ncc3Cl)cc2C(=O)N1Cc1cc(F)ccc1CO` [Example 96, (R)-7-(5-chloro-2-((1,3-dimethyl-1h-pyrazole-5-yl)amino)pyridine-4-yl)-2-(5-fluoro-2-(hydroxymethyl)benzyl)-3-(methoxymethyl)-3,4-dihydropyrrolo[1,2-a] pyrazine-1(2H)-one]: the IC50 with COLO205 cells (setting [1]) stood at 0.011 µM; against ERK2, 1.8 nM.
Compound `Cc1cnc(Nc2ccnn2C)nc1-c1c[nH]c(C(=O)NCc2cccc(F)c2)c1` [Example D4, N-(3-fluorobenzyl)-4-(5-methyl-2-((1-methyl-1h-pyrazole-5-yl)amino)pyrimidin-4-yl)-1h-pyrrole-2-formamide, reference compound] yielded an IC50 with COLO205 cells (setting [1]) of 0.252 µM.
As for `COC[C@H]1Cn2cc(-c3cc(Nc4cn(C)nc4C)ncc3Cl)cc2C(=O)N1Cc1cc(F)ccc1CO` [Example 89, (R)-7-(5-chloro-2-((1,3-dimethyl-1h-pyrazole-4-yl)amino)pyridine-4-yl)-2-(5-fluoro-2-(hydroxymethyl)benzyl)-3-(methoxymethyl)-3,4-dihydropyrrolo[1,2-a] pyrazin-1(2H)-one], the IC50 in the test on COLO205 cells (setting [1]) turned out to be 0.012 µM; at ERK2, 1.1 nM.
Compound `COC[C@H]1Cn2cc(-c3cc(Nc4c(F)cnn4C)ncc3Cl)cc2C(=O)N1Cc1cc(F)ccc1CO` [Example 51, (R)-7-(5-chloro-2-((4-fluoro-1-methyl-1H-pyrazol-5-yl)amino)pyridin-4-yl)-2-(5-fluoro-2-(hydroxymethyl)benzyl)-3-(methoxymethyl)-3,4-dihydropyrrolo[1,2-a]pyrazine-1(2H)-ketone] registered a half-maximal inhibitory concentration (IC50) in the test with COLO205 cells (setting [1]) of 0.0244 µM.
In the test on COLO205 cells (setting [1]), `CC(C)Nc1cc(-c2cc3n(c2)CCN(Cc2cccc(F)c2)C3=O)c(Cl)cn1` [Example D8, 7-(5-chloro-2-(isopropylamino)pyridin-4-yl)-2-(3-fluorobenzyl)-3,4-dihydropyrrolo[1,2-a] pyrazine-1(2H)-one, reference compound] returned a half-inhibitory concentration (IC50) of 1.63 µM.
Regarding `CC(C)Nc1cc(-c2cc3n(c2)CCCN(Cc2cc(F)c(F)cc2CO)C3=O)c(Cl)cn1` [Example 21, 8-(5-chloro-2-(isopropylamino)pyridin-4-yl)-2-(4,5-difluoro-2-(hydroxymethyl)benzyl)-2,3,4,5-tetrahydro-1h-pyrrolo[1,2-a][1,4] diazepine-1-one], the results for the IC50 in the test with COLO205 cells (setting [1]), against ERK1 and against ERK2 were 0.0733 µM, 0.73 nM and 0.76 nM, respectively.
For `CC(C)Nc1cc(-c2c[nH]c(C(=O)NCc3cccc(F)c3)c2)c(Cl)cn1` [Example D6, 4-(5-chloro-2-(isopropylamino)pyridine-4-yl)-N-(3-fluorobenzyl)-1h-pyrrole-2-formamide, reference compound] the same measures were > 10 µM, 44 nM and 26 nM.
For `CC(C)Nc1cc(-c2cc3n(c2)CC2(COC2)CN(Cc2cc(F)ccc2CO)C3=O)c(Cl)cn1` [Example 10, 8′-(5-chloro-2-(isopropylamino)pyridin-4-yl)-2′-(5-fluoro-2-(hydroxymethyl)benzyl)-2′,3′-dihydro-1′h,5′h-spiro[oxacyclobutane-3,4′-pyrrolo[1,2-a][1,4]diazepine]-1′-one] the same measures were 0.0167 µM, 0.89 nM and 0.87 nM.
As for `COC[C@H]1Cn2cc(-c3cc(Nc4ccnn4CC(F)F)ncc3Cl)cc2C(=O)N1Cc1cc(F)ccc1CO` [Example 115, (R)-7-(5-chloro-2-((1-(2,2-difluoroethyl)-1h-pyrazole-5-yl)amino)pyridine-4-yl)-2-(5-fluoro-2-(hydroxymethyl)benzyl)-3-(methoxymethyl)-3,4-dihydropyrrolo[1,2-a] pyrazine-1(2H)-one], the concentration for half-maximal inhibition (IC50) is 0.0167 µM with COLO205 cells (setting [1]), 1.6 nM at ERK1 and 1.2 nM against ERK2.
For `CC(C)Nc1cc(-c2cc3n(c2)CCN(C(CO)c2cccc(C(F)(F)F)c2)C3=O)c(Cl)cn1` (stereo not drawn) [Example D1, reference compound], the IC50 in the test on COLO205 cells (120 h incubation) stood at 7.33 µM.
Regarding `CC(C)Nc1cc(-c2cc3n(c2)CCN(Cc2cc(F)ccc2CO)C3=O)c(Cl)cn1` [Example 18, 7-(5-chloro-2-(isopropylamino)pyridin-4-yl)-2-(5-fluoro-2-(hydroxymethyl)benzyl)-3,4-dihydropyrrolo[1,2-a]pyrazine-1(2H)-one], the values for the IC50 in the test on COLO205 cells (setting [1]), against ERK1 and on ERK2 were 0.0566 µM, 0.4 nM and 0.49 nM, respectively.
For `Cc1cnc(NC2CCOC2)nc1-c1cc2n(c1)CCN(Cc1cc(F)ccc1CO)C2=O` (stereo not drawn) [Example 33, 2-(5-fluoro-2-(hydroxymethyl)benzyl)-7-(5-methyl-2-((tetrahydrofuran-3-yl)amino)pyrimidin-4-yl)-3,4-dihydropyrrolo[1,2-a]pyrazine-1(2H)-one] the same measures were 0.076 µM, 0.45 nM and 0.4 nM.
For `Cn1nccc1Nc1ncc(C(F)(F)F)c(-c2cc3n(c2)CCN(Cc2cc(F)ccc2CO)C3=O)n1` [Example 164, 2-(5-fluoro-2-(hydroxymethyl)benzyl)-7-(2-((1-methyl-1h-pyrazole-5-yl)amino)-5-(trifluoromethyl)pyrimidin-4-yl)-3,4-dihydropyrrolo[1,2-a] pyrazine-1(2H)-one], the IC50 came out at 0.0289 µM with COLO205 cells (setting [1]) and 0.66 nM at ERK2.
Regarding `COCOC[C@H]1Cn2cc(-c3cc(Nc4ccnn4C)ncc3Cl)cc2C(=O)N1Cc1cc(F)ccc1CO` [Example 53, (R)-7-(5-chloro-2-((1-methyl-1H-pyrazol-5-yl)amino)pyridin-4-yl)-2-(5-fluoro-2-(hydroxymethyl)benzyl)-3-((methoxymethoxy)methyl)-3,4-dihydropyrrolo[1,2-a]pyrazine-1(2H)-ketone], half-maximal inhibition in the test on COLO205 cells (setting [1]) (IC50) required 0.0039 µM.
Consider `COC[C@H]1Cn2cc(-c3cc(Nc4cnn(C)c4)ncc3Cl)cc2C(=O)N1Cc1cc(F)ccc1CO` [Example 88, (R)-7-(5-chloro-2-((1-methyl-1h-pyrazole-4-yl)amino)pyridine-4-yl)-2-(5-fluoro-2-(hydroxymethyl)benzyl)-3-(methoxymethyl)-3,4-dihydropyrrolo[1,2-a] pyrazine-1(2H)-one], for which the figures for the IC50 with COLO205 cells (setting [1]) and against ERK2 were 0.0288 µM and 1 nM, respectively.
As for `CC(C)Nc1cc(-c2cnn(C(=O)N[C@H](CO)c3cccc(Cl)c3)c2)c(Cl)cn1` [Example D2, (S)-4-(5-chloro-2-(isopropylamino)pyridin-4-yl)-N′-(1-(3-chlorophenyl)-2-hydroxyethyl)-1H-pyrazole-1-carboxamide, reference compound], the concentration for half-maximal inhibition (IC50) in the test on COLO205 cells (120 h incubation) turned out to be 12.2 µM.
